Experimental data from PubChem BioAssay AID1259407 (Chemical Carcinogenesis Research Information System (CCRIS), 2018).
Calls of active or inactive are those of the source. The rule behind the calls is not given here.

Test system: CCRIS mutagenicity, Ames/micronucleus/aberration tests
Test: CCRIS mutagenicity studies

O=[N+]([O-])c1cc2[nH]c3cc([N+](=O)[O-])c4ccccc4c3c2c2ccccc12
mutagenic call (Test System: AMES SALMONELLA TYPHIMURIUM, Strain/Indicator: TA98, Metabolic Activation: NONE, Method: STANDARD PLATE): active; positive
mutagenic call (Test System: AMES SALMONELLA TYPHIMURIUM, Strain/Indicator: TA98, Metabolic Activation: RAT, LIVER, S-9, 3-METHYLCHOLANTHRENE, Method: STANDARD PLATE): active; positive
mutagenic call (Test System: AMES SALMONELLA TYPHIMURIUM, Strain/Indicator: TA100, Metabolic Activation: NONE, Method: STANDARD PLATE): active; positive
mutagenic call (Test System: AMES SALMONELLA TYPHIMURIUM, Strain/Indicator: TA100, Metabolic Activation: RAT, LIVER, S-9, 3-METHYLCHOLANTHRENE, Method: STANDARD PLATE): active; positive

CC(=O)[C@H]1CC[C@H]2[C@@H]3C=CC4=CC(=O)CC[C@@]4(C)[C@@H]3CC[C@]12C
mutagenic call (End Point: IN VIVO MICRONUCLEUS, Test System: HEPATOCYTES, Species: RAT, Strain/Sex: SPRAGUE-DAWLEY/FEMALE, Route: INTRAGASTRIC (GAVAGE)): inactive; negative

CNc1nc2c3cccnc3ccc2n1C
mutagenic call (Test System: AMES SALMONELLA TYPHIMURIUM, Strain/Indicator: TA98, Metabolic Activation: RAT, LIVER, S-9, AROCLOR 1254, Method: PREINCUBATION): active; positive
mutagenic call (Test System: AMES SALMONELLA TYPHIMURIUM, Strain/Indicator: TA100, Metabolic Activation: RAT, LIVER, S-9, AROCLOR 1254, Method: PREINCUBATION): active; positive

O=C(Oc1ccccc1)c1ccccc1O
mutagenic call (Test System: AMES SALMONELLA TYPHIMURIUM, Strain/Indicator: TA98, Metabolic Activation: HAMSTER, LIVER, S-9, AROCLOR 1254 (10%), Method: PREINCUBATION): inactive; negative
mutagenic call (Test System: AMES SALMONELLA TYPHIMURIUM, Strain/Indicator: TA98, Metabolic Activation: NONE, Method: PREINCUBATION): inactive; negative
mutagenic call (Test System: AMES SALMONELLA TYPHIMURIUM, Strain/Indicator: TA98, Metabolic Activation: RAT, LIVER, S-9, AROCLOR 1254 (10%), Method: PREINCUBATION): inactive; negative
mutagenic call (Test System: AMES SALMONELLA TYPHIMURIUM, Strain/Indicator: TA100, Metabolic Activation: HAMSTER, LIVER, S-9, AROCLOR 1254 (10%), Method: PREINCUBATION): inactive; negative
mutagenic call (Test System: AMES SALMONELLA TYPHIMURIUM, Strain/Indicator: TA100, Metabolic Activation: NONE, Method: PREINCUBATION): inactive; negative
mutagenic call (Test System: AMES SALMONELLA TYPHIMURIUM, Strain/Indicator: TA100, Metabolic Activation: RAT, LIVER, S-9, AROCLOR 1254 (10%), Method: PREINCUBATION): inactive; negative
mutagenic call (Test System: AMES SALMONELLA TYPHIMURIUM, Strain/Indicator: TA1535, Metabolic Activation: HAMSTER, LIVER, S-9, AROCLOR 1254 (10%), Method: PREINCUBATION): inactive; negative
mutagenic call (Test System: AMES SALMONELLA TYPHIMURIUM, Strain/Indicator: TA1535, Metabolic Activation: NONE, Method: PREINCUBATION): inactive; negative
mutagenic call (Test System: AMES SALMONELLA TYPHIMURIUM, Strain/Indicator: TA1535, Metabolic Activation: RAT, LIVER, S-9, AROCLOR 1254 (10%), Method: PREINCUBATION): inactive; negative
mutagenic call (Test System: AMES SALMONELLA TYPHIMURIUM, Strain/Indicator: TA1537, Metabolic Activation: HAMSTER, LIVER, S-9, AROCLOR 1254 (10%), Method: PREINCUBATION): inactive; negative
mutagenic call (Test System: AMES SALMONELLA TYPHIMURIUM, Strain/Indicator: TA1537, Metabolic Activation: NONE, Method: PREINCUBATION): inactive; negative
mutagenic call (Test System: AMES SALMONELLA TYPHIMURIUM, Strain/Indicator: TA1537, Metabolic Activation: RAT, LIVER, S-9, AROCLOR 1254 (10%), Method: PREINCUBATION): inactive; negative
